{
  "source": "paper PMC9101188",
  "about": "“Human α-Defensin-6 Neutralizes Clostridioides difficile Toxins TcdA and TcdB by Direct Binding” (International Journal of Molecular Sciences, 2022)",
  "key": {"[1]": {"system": "CaCo-2 monolayer"}, "[2]": {"system": "Vero cells", "format": "cell-based, African green monkey"}, "[3]": {"system": "CaCo-2 cells"}, "[4]": {"system": "TcdB glucosyltransferase", "assay": "UDP-Glo glucosyltransferase assay", "format": "biochemical, C. difficile VPI 10463", "details": "TcdB 200 pM, recombinant Rac1 5 µM, UDP-glucose 100 µM, 1 h, 37 °C, pH 7.5, luminescence (n ≥ 3)", "experimental": "(§1) The flow rate was 25 µL/min. […] A representative gel is shown (n = 2). […] GAPDH served as the loading control. A representative Western blot is shown.\nUDP-Glo™ Glucosyltransferase assay with UDP-Glucose (Promega Corporation, Madison, WI, USA) was performed according to the manufacturer’s protocol. Briefly, TcdB (200 pM) was incubated in glucosylation buffer (50 mM HEPES, 100 mM KCl, 2 mM MgCl2, 1 mM MnCl2, 100 mg/L BSA, pH 7.5) with various concentrations of the respective inhibitors in a final volume of 40 µL. 5 µM recombinant Rac1 was included in the samples as a substrate. […] Castanospermine (10 mM, Santa Cruz Biotechnology, Dallas, TX, USA) served as control for inhibition of glucosyltransferase activity of TcdB. To stop the reaction, three times 10 µL of each sample were transferred to a white half area 96 well microplate (Greiner Bio-One International GmbH, Kremsmünster, Austria) combined with 10 µL of UDP Detection Reagent and mixed at 1000 rpm for 30 s on a plate shaker (Titramax 1000, Heidolph Instruments GmbH & Co. KG, Schwabach, Germany). Luminescence was recorded after 15–60 min via a Tecan infinite M1000 Pro plate reader (Tecan, Männdorf, Switzerland) with an integration time of 750 ms."}, "[5]": {"system": "TcdB glucosyltransferase", "assay": "In vitro glucosylation of Rac1 by TcdB (CaCo-2 lysate, Western blot)", "format": "biochemical, C. difficile VPI 10463", "details": "CaCo-2 cell lysate 40 µg, TcdB 50 ng; α-def-6 up to 12 µM; 2 h, 37 °C, pH 7.5; Western blot (n = 4)", "experimental": "as §1\nTo evaluate the potential effects of α-def-6 on TcdB glucosyltransferase activity, 40 µg of CaCo-2 cell lysate were used as a source of Rac1 and incubated with TcdB (50 ng) in glucosylation buffer (50 mM HEPES, 100 mM KCl, 2 mM MgCl2, 1 mM MnCl2, 100 mg/L BSA, pH 7.5) in a final volume of 20 µL. Two concentrations of α-def-6 (6 µM, 12 µM) were tested. Reactions were allowed to proceed for 2 h at 37 °C and stopped with the addition of a Laemmli buffer and heating for 10 min at 95 °C. The samples were loaded onto a 12.5% polyacrylamide gel and separated via SDS-PAGE followed by Western blotting. Unspecific binding sites were blocked with 5% (w/v) skim milk powder diluted in PBS with 0.1% (v/v) Tween®20 (PBS-T, pH 7.4) for 1 h at RT. The glucosylation status of Rac1 was assessed by probing with a mouse anti-Rac1-antibody (1:500, #610651, BD Biosciences, Franklin Lakes, NJ, USA) specifically directed against non-glucosylated Rac1 overnight at 4 °C. After washing, the membrane was incubated with a secondary horseradish-peroxidase (HRP)-conjugated goat-anti-mouse antibody (1:2500, #31430, Invitrogen by Thermo Fisher Scientific, Waltham, MA, USA) for 1 h at RT. Signals were detected using the ECL-system. […]"}, "[6]": {"system": "Rac1", "format": "cell-based, African green monkey"}, "[7]": {"system": "SARS-CoV-2", "details": "ref [55]; cited from earlier work", "source_text": "There is increasing evidence that α-def-6 represents an outlier among the α-defensins, which is also noticeable in the context of bacterial toxins. Anti-toxin activities have already been described for several α-defensins."}, "[8]": {"system": "Rac1", "format": "cell-based, African green monkey", "remark": "listed apart in the source"}, "[9]": {"system": "bacteria", "details": "cited from earlier work", "source_text": "The benchmark for treating CDIs is still the use of some specific antibiotics such as vancomycin, metronidazole or fidaxomicin [20]. More and more attention is also being paid to the direct inactivation of the secreted toxins, for example by using anti-toxin-antibodies such as bezlotoxumab or actoxumab. Following the approach of directly inactivating the secreted toxins and based on previous findings of our group and of others, we investigated the effects of human endogenous antimicrobial peptides on the C. difficile toxins TcdA and TcdB. […] The administration of α-def-6 protected human cells from TcdB, but also from the closely related TcdA and the clinically more relevant combination of both TcdA and TcdB. Exemplarily, the protective effect could be confirmed for TcdB in vivo using the zebrafish embryo ..."}, "[10]": {"system": "Rac1", "format": "cell-based, African green monkey", "remark": "listed apart in the source"}, "[11]": {"system": "Vero cells"}, "[12]": {"target": "T1, TcdB-DL488 (Clostridioides difficile, UniProt P18177)", "T1 construct": "The native toxins TcdA and TcdB from C. difficile VPI 10463 were expressed and purified; made in house; host or cells: C. difficile VPI 10463 (inferred from \"native toxins\")", "T1 sequence (P18177 whole entry)": "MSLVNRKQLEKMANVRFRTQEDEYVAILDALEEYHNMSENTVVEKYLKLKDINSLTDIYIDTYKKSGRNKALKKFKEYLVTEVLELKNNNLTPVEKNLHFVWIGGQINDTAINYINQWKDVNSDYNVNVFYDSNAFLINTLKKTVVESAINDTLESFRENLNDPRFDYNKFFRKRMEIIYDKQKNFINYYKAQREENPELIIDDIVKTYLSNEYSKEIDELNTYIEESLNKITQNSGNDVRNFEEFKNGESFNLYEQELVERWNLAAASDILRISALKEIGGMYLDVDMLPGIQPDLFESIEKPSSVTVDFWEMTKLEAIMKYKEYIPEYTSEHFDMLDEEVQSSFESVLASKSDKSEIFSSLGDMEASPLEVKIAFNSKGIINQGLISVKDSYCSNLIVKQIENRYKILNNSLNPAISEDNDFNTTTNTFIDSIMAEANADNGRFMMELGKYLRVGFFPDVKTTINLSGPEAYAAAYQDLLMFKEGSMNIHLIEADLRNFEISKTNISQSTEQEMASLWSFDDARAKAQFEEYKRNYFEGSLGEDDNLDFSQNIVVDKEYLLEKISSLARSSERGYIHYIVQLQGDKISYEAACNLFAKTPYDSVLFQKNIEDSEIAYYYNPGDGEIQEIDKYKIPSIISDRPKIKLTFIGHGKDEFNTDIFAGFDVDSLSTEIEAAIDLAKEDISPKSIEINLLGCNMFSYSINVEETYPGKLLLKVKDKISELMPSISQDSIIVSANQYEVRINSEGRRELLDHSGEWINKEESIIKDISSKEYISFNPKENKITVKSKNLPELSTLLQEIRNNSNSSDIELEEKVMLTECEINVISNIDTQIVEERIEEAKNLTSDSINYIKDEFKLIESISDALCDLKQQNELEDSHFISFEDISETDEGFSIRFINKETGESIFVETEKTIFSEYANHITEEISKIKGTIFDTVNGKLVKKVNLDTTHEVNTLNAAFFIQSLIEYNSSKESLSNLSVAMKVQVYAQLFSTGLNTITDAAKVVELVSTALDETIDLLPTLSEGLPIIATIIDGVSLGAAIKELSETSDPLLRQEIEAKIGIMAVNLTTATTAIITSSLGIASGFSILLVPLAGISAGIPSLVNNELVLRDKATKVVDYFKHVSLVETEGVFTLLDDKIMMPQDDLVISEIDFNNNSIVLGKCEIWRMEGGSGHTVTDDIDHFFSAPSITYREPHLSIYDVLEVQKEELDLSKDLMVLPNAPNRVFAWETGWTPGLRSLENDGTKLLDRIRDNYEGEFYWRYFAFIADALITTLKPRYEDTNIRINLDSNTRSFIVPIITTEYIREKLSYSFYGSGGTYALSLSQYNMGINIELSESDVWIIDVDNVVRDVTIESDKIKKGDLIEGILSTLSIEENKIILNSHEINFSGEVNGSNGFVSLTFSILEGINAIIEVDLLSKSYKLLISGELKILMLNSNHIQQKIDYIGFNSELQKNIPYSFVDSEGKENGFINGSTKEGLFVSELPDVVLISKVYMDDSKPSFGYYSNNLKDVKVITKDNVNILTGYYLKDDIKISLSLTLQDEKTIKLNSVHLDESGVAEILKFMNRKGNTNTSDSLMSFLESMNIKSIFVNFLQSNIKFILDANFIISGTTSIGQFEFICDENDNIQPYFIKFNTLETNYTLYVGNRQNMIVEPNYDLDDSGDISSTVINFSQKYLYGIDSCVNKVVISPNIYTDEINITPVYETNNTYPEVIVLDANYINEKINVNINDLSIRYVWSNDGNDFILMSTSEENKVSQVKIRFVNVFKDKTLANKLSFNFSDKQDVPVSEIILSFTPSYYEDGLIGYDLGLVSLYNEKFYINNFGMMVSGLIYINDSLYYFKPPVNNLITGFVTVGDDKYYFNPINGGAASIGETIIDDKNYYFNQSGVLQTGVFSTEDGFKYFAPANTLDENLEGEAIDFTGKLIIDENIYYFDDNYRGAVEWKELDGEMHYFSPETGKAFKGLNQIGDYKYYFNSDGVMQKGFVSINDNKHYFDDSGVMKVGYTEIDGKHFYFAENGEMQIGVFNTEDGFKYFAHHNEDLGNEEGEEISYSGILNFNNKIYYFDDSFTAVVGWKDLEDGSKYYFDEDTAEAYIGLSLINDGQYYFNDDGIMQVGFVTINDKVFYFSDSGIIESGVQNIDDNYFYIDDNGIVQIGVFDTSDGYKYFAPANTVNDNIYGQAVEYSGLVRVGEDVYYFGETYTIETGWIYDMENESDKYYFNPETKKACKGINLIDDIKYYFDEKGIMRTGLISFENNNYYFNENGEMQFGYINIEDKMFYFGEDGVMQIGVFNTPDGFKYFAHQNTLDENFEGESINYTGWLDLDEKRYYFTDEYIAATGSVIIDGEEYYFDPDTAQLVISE", "assay": "Aggregation of TcdB-DL488 over time in the absence of cells (fluorescence microscopy)", "parameters": "species or system C. difficile VPI 10463", "details": "α-def-6 6 µM, TcdB-DL488 30 nM in PBS, 37 °C", "experimental": "Cells were fixed and permeabilized. […] Scale bars correspond to 50 µm. […] TcdB was detected.\nSimultaneously the same volume of PBS was exposed to DyLight^TM 488 NHS-Ester to serve as a negative control in experiments. To remove free fluorescence dye, the samples were rebuffered by passing through Zeba^TM Spin Desalting Columns via centrifugation.\nAggregation was allowed to proceed for 30 min at 37 °C. Images were taken every second for the first 5 min and every 10 s for additional 25 min. Images were processed using ImageJ."}, "[13]": {"system": "TcdB", "details": "TcdB 50 ng, α-def-6 6 µM, PBS, 0.5 h, 37 °C (n = 3)", "description": "(C) TcdB (50 ng) was incubated with or without α-def-6 (6 µM) in PBS for 0.5 h at 37 °C. Samples were centrifuged to segregate aggregates and divided into a supernatant (S) and pellet (P) fraction. Fractions were subjected to SDS-PAGE followed by Western blotting. TcdB was detected.\nThe TcdB stock was centrifuged for 20 min at 14,000 rpm and 4 °C to remove any preformed aggregates. TcdB (50 ng) was incubated in the absence or presence of α-def-6 (6 µM) for 30 min at 37 °C in a final volume of 35 µL PBS. The samples were centrifuged as before to segregate possible aggregates and subsequently separated into a supernatant (30 µL) and pellet fraction (5 µL). The pellet fraction was resuspended with 25 µL PBS to a final volume of 30 µL. Each fraction (30 µL) was then subjected to SDS-PAGE (8% polyacrylamide gel) and Western blotting. TcdB was detected using an anti-TcdB-antibody (1:1000, #ab270452, Abcam, Cambridge, UK) followed by an HRP-conjugated mouse anti-rabbit antibody (1:2500; #sc-2357; Santa Cruz Biotechnology, Dallas, TX, USA)."}},
  "data": [
    {"smiles": "CC[C@H](C)[C@@H]1NC(=O)CNC(=O)[C@H](CCSC)NC(=O)[C@H](C(C)C)NC(=O)[C@H]([C@@H](C)O)NC(=O)[C@@H]2CSSC[C@@H]3NC(=O)[C@H](Cc4c[nH]cn4)NC(=O)[C@@H](NC(=O)[C@@H](NC(=O)[C@H](Cc4ccccc4)NC(=O)[C@H](C)N)[C@@H](C)O)CSSC[C@@H](C(=O)N[C@@H](CC(C)C)C(=O)O)NC(=O)[C@H](CSSC[C@H](NC(=O)[C@H](CO)NC(=O)[C@H](CCCNC(=N)N)NC(=O)[C@H](CCCNC(=N)N)NC3=O)C(=O)N[C@@H](Cc3ccc(O)cc3)C(=O)N[C@@H](CO)C(=O)N[C@@H]([C@@H](C)O)C(=O)N[C@@H](CCC(=O)O)C(=O)N[C@@H](Cc3ccc(O)cc3)C(=O)N[C@@H](CO)C(=O)N[C@@H](Cc3ccc(O)cc3)C(=O)NCC(=O)N[C@@H]([C@@H](C)O)C(=O)N2)NC(=O)[C@H](Cc2ccccc2)NC(=O)[C@H](CCCNC(=N)N)NC(=O)[C@H](Cc2c[nH]cn2)NC(=O)[C@H](CC(N)=O)NC1=O", "note": "[α-def-6]", "values": [
      {"measurement": "TEER, TcdB", "setting": "[1]", "value": "clear delay in TEER-reduction"},
      {"measurement": "cytotoxic effects on the monolayer, TcdB", "setting": "[1]", "value": "time-dependent inhibition of the cytotoxic effects on the monolayer"},
      {"measurement": "inhibition of toxin effects on cells, TcdA", "setting": "[2]", "value": "clear inhibition"},
      {"measurement": "protection of cells against TcdA", "setting": "[2]", "value": "clear protection"},
      {"measurement": "amount of rounded CaCo-2 cells, TcdB", "setting": "[3]", "value": "reduced amount of rounded CaCo-2 cells was visible for at least 6 h"},
      {"measurement": "inhibition of glucosyltransferase activity of TcdB", "setting": "[4]", "value": "not able to inhibit glucosyltransferase activity"},
      {"measurement": "inhibition of enzymatic activity of the glucosyltransferase domain of TcdB", "setting": "[5]", "value": "almost no inhibition"},
      {"measurement": "Rac1 modification by TcdA + TcdB", "setting": "[6]", "value": "diminished the toxin-mediated Rac1-modification"},
      {"measurement": "prevention of infection of cells with SARS-CoV-2", "setting": "[7]", "value": "cannot prevent the infection of cells with SARS-CoV-2"},
      {"measurement": "glucosylation of Rac1 in intact cells", "setting": "[8]", "value": "less Rac1 was glucosylated"},
      {"measurement": "microbiocidal activity", "setting": "[9]; ref [27]", "value": "negligible microbiocidal activity"},
      {"measurement": "biocidal / antimicrobial activity", "setting": "[9]; ref [46]", "value": "surprisingly low antimicrobial activity"},
      {"measurement": "glucosylation of Rac1 by TcdA", "setting": "[10]", "value": "clearly less Rac1 was glucosylated"},
      {"measurement": "inhibition of toxin effects on cells, TcdB", "setting": "[11]", "value": "clear inhibition"},
      {"measurement": "protection of cells against TcdB", "setting": "[11]", "value": "almost complete protection"},
      {"measurement": "reduction of the amount of rounded cells", "setting": "[11]", "value": "clear concentration-dependent reduction of the amount of rounded cells"},
      {"measurement": "IC50", "setting": "[11]; 5 h", "value": "~500", "unit": "nM"},
      {"measurement": "time of formation of toxin-defensin aggregates", "setting": "[12]", "value": "within a few seconds to minutes"},
      {"measurement": "formation of toxin-defensin complexes", "setting": "[12]; 0.5 h, no cells (n ≥ 2)", "value": "very fast and distinct formation of large toxin-defensin complexes"},
      {"measurement": "shift of TcdB to pellet fraction", "setting": "[13]", "value": "shift of TcdB from the supernatant to the pellet fraction"}
    ]}
  ]
}
